Assay results as given in ChEMBL document CHEMBL1137832, “P1' oxadiazole protease inhibitors with excellent activity against native and protease inhibitor-resistant HIV-1” (Bioorg Med Chem Lett, 2004).

Experiments:
[1] = molecular target: T1, Human immunodeficiency virus type 1 protease (Human immunodeficiency virus 1, UniProt Q72874); assay: Inhibitory concentration against HIV-1 protease (NL4-3)
MT4 [2] = assay: Concentration required to inhibit spread of native HIV-1(Q-60) protease obtained from PI-resistant clinical isolate in MT-4 human T-lymphoid cells; format: functional; conditions: read-out: CIC95
MT4 [3] = assay: Concentration required to inhibit spread of native HIV-1(K-60) protease obtained from PI-resistant clinical isolate in MT-4 human T-lymphoid cells; format: functional; conditions: read-out: CIC95
MT4 [4] = assay: Concentration required to inhibit spread of native HIV-1(4X) protease obtained from PI-resistant clinical isolate in MT-4 human T-lymphoid cells; format: functional; conditions: read-out: CIC95
MT4 [5] = assay: Concentration required to inhibit spread of native HIV-1(NL4-3) protease obtained from PI-resistant clinical isolate in MT-4 human T-lymphoid cells; format: functional; conditions: read-out: CIC95
MT4 [6] = assay: Concentration required to inhibit spread of native HIV-1(V18) protease obtained from PI-resistant clinical isolate in MT-4 human T-lymphoid cells; format: functional; conditions: read-out: CIC95
[7] = molecular target: T1, Human immunodeficiency virus type 1 protease; assay: inhibitory concentration against HIV-1 protease from PI-resistant clinical isolate (V18)

| Compound | IC50 [1] [nM] | IC95 (MT4 [2]) [nM] | IC95 (MT4 [3]) [nM] | IC95 (MT4 [4]) [nM] | IC95 (MT4 [5]) [nM] | IC95 (MT4 [6]) [nM] | IC50 [7] [nM] |
| --- | --- | --- | --- | --- | --- | --- | --- |
| CC(C)(c1ncc(-c2ccc(Cl)cc2)o1)N1CCN(C[C@@H](O)C[C@@H](Cc2nnco2)C(=O)N[C@H]2CCOC[C@H]2O)[C@H](C(=O)NCC(F)(F)F)C1 | < 0.01 | 31 | 63 | 31 | 125 | 63 | 0.04 |
| CCCc1nnc(C[C@H](C[C@H](O)CN2CCN(C(C)(C)c3ncc(-c4ccc(Cl)cc4)o3)C[C@H]2C(=O)NCC(F)(F)F)C(=O)N[C@H]2CCOC[C@H]2O)o1 | < 0.01 | ≤ 8 | 16 | ≤ 8 | ≤ 8 | 63 | 0.18 |
| O=C(N[C@H]1CCOC[C@H]1O)[C@H](Cc1nnco1)C[C@H](O)CN1CCN(Cc2ccc(-c3ccc(Cl)cc3)o2)C[C@H]1C(=O)NCC(F)(F)F | 0.01 | 31 | 63 | 31 | 63 | 125 | 0.09 |
| COc1cncc(-c2cnc(C(C)(C)N3CCN(C[C@@H](O)C[C@@H](Cc4nnc(-c5ccccc5)o4)C(=O)N[C@H]4CCOC[C@H]4O)[C@H](C(=O)NCC(F)(F)F)C3)o2)c1 | 0.48 | 500 | 250 | 250 | 125 | < 1000 | – |
| Cc1nnc(C[C@H](C[C@H](O)CN2CCN(Cc3ccc(-c4ccc(Cl)cc4)o3)C[C@H]2C(=O)NCC(F)(F)F)C(=O)N[C@H]2CCOC[C@H]2O)o1 | < 0.01 | 31 | 31 | 31 | ≤ 63 | 63 | – |
| Cc1nnc(C[C@H](C[C@H](O)CN2CCN(C(C)(C)c3ncc(-c4ccc(Cl)cc4)o3)C[C@H]2C(=O)NCC(F)(F)F)C(=O)N[C@H]2CCOC[C@H]2O)o1 | 0.01 | ≤ 8 | 31 | 16 | 250 | 63 | 0.06 |
| O=C(N[C@H]1CCOC[C@H]1O)[C@H](Cc1nnc(-c2ccccc2)o1)C[C@H](O)CN1CCN(Cc2ccc(-c3ccc(Cl)cc3)o2)C[C@H]1C(=O)NCC(F)(F)F | 0.01 | 63 | ≤ 8 | 125 | 15.6 | 250 | – |
| Cc1nnc(C[C@H](C[C@H](O)CN2CCN(C(C)(C)c3ncc(-c4ccc(F)cc4)o3)C[C@H]2C(=O)NCC(F)(F)F)C(=O)N[C@H]2CCOC[C@H]2O)o1 | 0.02 | 31 | 125 | 31 | 125 | 63 | 0.19 |
| CC(C)(c1ncc(-c2ccc(F)cc2)o1)N1CCN(C[C@@H](O)C[C@@H](Cc2nnco2)C(=O)N[C@H]2CCOC[C@H]2O)[C@H](C(=O)NCC(F)(F)F)C1 | 0.02 | 31 | 125 | 31 | 125 | 125 | 0.06 |
| CCCc1nnc(C[C@H](C[C@H](O)CN2CCN(C(C)(C)c3ncc(-c4ccc(F)cc4)o3)C[C@H]2C(=O)NCC(F)(F)F)C(=O)N[C@H]2CCOC[C@H]2O)o1 | 0.01 | ≤ 8 | 16 | 16 | 16 | 63 | 0.19 |
| COc1cncc(-c2cnc(C(C)(C)N3CCN(C[C@@H](O)C[C@@H](Cc4nnc(C)o4)C(=O)N[C@H]4CCOC[C@H]4O)[C@H](C(=O)NCC(F)(F)F)C3)o2)c1 | 0.4 | > 1000 | > 1000 | > 1000 | > 1000 | > 1000 | 15 |
| CC(C)(c1ncc(-c2ccc(Cl)cc2)o1)N1CCN(C[C@@H](O)C[C@@H](Cc2nnc(-c3ccccc3)o2)C(=O)N[C@H]2CCOC[C@H]2O)[C@H](C(=O)NCC(F)(F)F)C1 | < 0.01 | 16 | ≤ 8 | 16 | ≤ 8 | 125 | 0.18 |
| CCCc1nnc(C[C@H](C[C@H](O)CN2CCN(C(C)(C)c3ncc(-c4cncc(OC)c4)o3)C[C@H]2C(=O)NCC(F)(F)F)C(=O)N[C@H]2CCOC[C@H]2O)o1 | 0.32 | 500 | 500 | 500 | 500 | < 1000 | – |
| CCCc1nnc(C[C@H](C[C@H](O)CN2CCN(Cc3ccc(-c4ccc(Cl)cc4)o3)C[C@H]2C(=O)NCC(F)(F)F)C(=O)N[C@H]2CCOC[C@H]2O)o1 | < 0.01 | 16 | ≤ 8 | 31 | ≤ 8 | 125 | – |
| COc1cncc(-c2cnc(C(C)(C)N3CCN(C[C@@H](O)C[C@@H](Cc4nnco4)C(=O)N[C@H]4CCOC[C@H]4O)[C@H](C(=O)NCC(F)(F)F)C3)o2)c1 | 0.24 | – | – | – | – | – | 7.4 |
| CC(C)(c1ncc(-c2ccc(F)cc2)o1)N1CCN(C[C@@H](O)C[C@@H](Cc2nnc(-c3ccccc3)o2)C(=O)N[C@H]2CCOC[C@H]2O)[C@H](C(=O)NCC(F)(F)F)C1 | 0.02 | 16 | ≤ 8 | 16 | ≤ 8 | 63 | – |
| CC(C)(C)NC(=O)[C@@H]1CN(Cc2cccnc2)CCN1C[C@@H](O)C[C@@H](Cc1ccccc1)C(=O)N[C@H]1c2ccccc2C[C@H]1O | – | > 1000 | > 1000 | 400 | 50 | > 1000 | – |
